Laboratory results published in patent US11541050B2, “Pyrimidine derivatives for the treatment of viral infections” (JANSSEN SCIENCES IRELAND UC, priority 2011, dated 2023).

Columns and labels:
Format in all cases: cell-based
Parameters in all cases: unit not given here
[1] = biological target: T1, human TLR7 (wild type sequence) (Homo sapiens, UniProt Q9NYK1); assay: TLR7 cellular NFκB-luc reporter assay, wild type TLR7; details: lowest effective concentration, wild type TLR7
T1 construct: expressed in transfected cells; host or cells: HEK293
T1 sequence (Q9NYK1 27-1049): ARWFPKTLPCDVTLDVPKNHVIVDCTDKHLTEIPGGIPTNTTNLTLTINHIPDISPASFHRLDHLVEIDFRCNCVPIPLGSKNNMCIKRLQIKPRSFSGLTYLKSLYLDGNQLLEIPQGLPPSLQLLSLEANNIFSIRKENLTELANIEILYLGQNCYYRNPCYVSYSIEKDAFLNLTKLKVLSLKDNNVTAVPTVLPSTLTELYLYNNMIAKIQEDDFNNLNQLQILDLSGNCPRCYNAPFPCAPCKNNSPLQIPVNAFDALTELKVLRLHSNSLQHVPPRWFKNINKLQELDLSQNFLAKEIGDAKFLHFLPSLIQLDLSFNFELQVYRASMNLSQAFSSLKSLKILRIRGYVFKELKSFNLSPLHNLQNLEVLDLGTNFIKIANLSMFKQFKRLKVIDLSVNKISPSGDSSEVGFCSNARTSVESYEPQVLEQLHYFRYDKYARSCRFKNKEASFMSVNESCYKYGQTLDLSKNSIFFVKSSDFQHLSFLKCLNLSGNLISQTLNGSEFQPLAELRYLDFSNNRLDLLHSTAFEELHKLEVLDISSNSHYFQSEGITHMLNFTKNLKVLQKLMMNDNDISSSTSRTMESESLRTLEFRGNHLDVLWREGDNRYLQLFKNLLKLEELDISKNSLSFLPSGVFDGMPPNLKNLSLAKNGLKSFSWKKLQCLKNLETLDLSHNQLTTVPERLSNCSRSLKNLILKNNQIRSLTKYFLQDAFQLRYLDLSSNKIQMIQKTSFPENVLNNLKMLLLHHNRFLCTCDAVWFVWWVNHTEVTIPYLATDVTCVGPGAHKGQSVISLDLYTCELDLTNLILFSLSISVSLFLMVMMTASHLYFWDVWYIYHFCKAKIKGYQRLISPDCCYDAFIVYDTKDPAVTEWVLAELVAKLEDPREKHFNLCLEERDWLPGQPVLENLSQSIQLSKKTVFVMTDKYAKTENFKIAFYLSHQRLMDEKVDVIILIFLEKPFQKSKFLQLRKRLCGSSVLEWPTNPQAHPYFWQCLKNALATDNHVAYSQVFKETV
In short: (§1)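 Luciferase signal read after 6 h compound incubation at 37 °C in HEK293 cells carrying transiently transfected TLR7 or TLR8 (wild type or LRR2-deletion) and NFκB-luc. Values are lowest effective concentrations from quadruplicate dose-response curves, effect ≥2-fold above assay SD.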

[2] = test system: human TLR8 mutant sequence comprising a deletion in the second leucine-rich repeat; assay: TLR8 cellular NFκB-luc reporter assay, mutant TLR8 with deletion in the second leucine-rich repeat; details: lowest effective concentration
Procedure: (§2) The ability of compounds to activate human TLR7 and/or TLR8 was assessed in a cellular reporter assay using HEK293 cells transiently transfected with a TLR7 or TLR8 expression vector and NFκB-luc reporter construct. In one instance the TLR expression construct expresses the respective wild type sequence or a mutant sequence comprising a deletion in the second leucine-rich repeat of the TLR.
(§3) Briefly, HEK293 cells were grown in culture medium (DMEM supplemented with 10% FCS and 2 mM Glutamine). For transfection of cells in 10 cm dishes, cells were detached with Trypsin-EDTA, transfected with a mix of CMV-TLR7 or TLR8 plasmid (750 ng), NFκB-luc plasmid (375 ng) and a transfection reagent and incubated for 48 hours at 37° C. in a humidified 5% CO2 atmosphere. […] Thirty microliters of cells were then dispensed into each well in 384-well plates, where 10 μL of compound in 4% DMSO was already present. Following 6 hours incubation at 37° C., 5% CO2, the luciferase activity was determined by adding 15 μl of Steady Lite Plus substrate (Perkin Elmer) to each well and readout performed on a ViewLux ultraHTS microplate imager (Perkin Elmer). Dose response curves were generated from measurements performed in quadruplicates.

[3] = test system: human TLR7 mutant sequence comprising a deletion in the second leucine-rich repeat; assay: TLR7 cellular NFκB-luc reporter assay, mutant TLR7 with deletion in the second leucine-rich repeat; details: lowest effective concentration
Procedure: as §2, §3

[4] = biological target: T2, human TLR8 (wild type sequence) (Homo sapiens, UniProt Q9NR97); assay: TLR8 cellular NFκB-luc reporter assay, wild type TLR8; details: lowest effective concentration
T2 construct: expressed in transfected cells; host or cells: HEK293
T2 sequence (Q9NR97 27-1041): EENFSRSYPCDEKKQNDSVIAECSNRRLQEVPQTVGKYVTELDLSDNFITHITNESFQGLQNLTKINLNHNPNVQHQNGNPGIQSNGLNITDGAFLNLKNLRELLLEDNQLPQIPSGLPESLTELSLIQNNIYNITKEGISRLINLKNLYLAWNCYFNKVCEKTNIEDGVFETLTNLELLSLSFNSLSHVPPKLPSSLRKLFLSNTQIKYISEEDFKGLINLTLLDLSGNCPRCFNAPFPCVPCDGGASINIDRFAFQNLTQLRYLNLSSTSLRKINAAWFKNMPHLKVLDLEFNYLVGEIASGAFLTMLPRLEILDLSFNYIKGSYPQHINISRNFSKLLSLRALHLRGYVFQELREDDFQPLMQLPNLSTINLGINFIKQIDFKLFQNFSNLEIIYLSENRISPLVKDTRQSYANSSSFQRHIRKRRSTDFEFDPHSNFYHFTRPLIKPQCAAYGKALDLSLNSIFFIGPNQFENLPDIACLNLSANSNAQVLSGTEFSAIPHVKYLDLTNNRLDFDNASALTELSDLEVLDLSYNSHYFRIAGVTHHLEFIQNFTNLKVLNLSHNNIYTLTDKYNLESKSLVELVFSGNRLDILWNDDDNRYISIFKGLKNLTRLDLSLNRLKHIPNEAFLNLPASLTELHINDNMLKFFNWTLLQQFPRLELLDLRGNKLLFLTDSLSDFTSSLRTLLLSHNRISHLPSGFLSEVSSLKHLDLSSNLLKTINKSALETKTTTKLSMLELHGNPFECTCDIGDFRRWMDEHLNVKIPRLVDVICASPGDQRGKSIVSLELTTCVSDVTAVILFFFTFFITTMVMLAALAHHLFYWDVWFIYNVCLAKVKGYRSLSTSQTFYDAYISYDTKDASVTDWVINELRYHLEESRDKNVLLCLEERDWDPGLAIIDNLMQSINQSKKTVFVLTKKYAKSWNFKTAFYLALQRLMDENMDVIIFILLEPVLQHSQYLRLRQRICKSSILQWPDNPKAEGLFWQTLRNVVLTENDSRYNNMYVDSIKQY
In short: as §1

| Structure (SMILES) | TLR7-wt_LEC [1] | TLR8-dIRR2_LEC [2] | TLR7-dIRR2_LEC [3] | TLR8-wt_LEC [4] |
| --- | --- | --- | --- | --- |
| CCC[C@@H](C)Nc1nc(N)ncc1OCc1nccc(OC)c1OC [Compound 252] | 4.020 | 1.310 | >25 |  |
| CCC[C@@H](CCO)Nc1nc(N)nc(C)c1OCc1nccc2ccccc12 [Compound 286] | 0.620 | 0.128 | 7.660 |  |
| CCC[C@@H](CCO)Nc1nc(N)ncc1OCc1ccncc1 [Compound 302] | 0.385 | 0.070 | 0.487 |  |
| CCCCNc1nc(N)ncc1O[C@@H](C)c1ccccn1 [Compound 262] | 0.658 | 0.363 | 0.168 |  |
| CCCC[C@@H](CO)Nc1nc(N)ncc1OCc1cn2ccccc2n1 [Compound 218] | 0.154 | 0.032 | 0.352 |  |
| CCC[C@@H](CCO)Nc1nc(N)ncc1OCc1nccc2ccccc12 [Compound 231] | 0.001 | <0.001 | 0.052 |  |
| CCCCNc1nc(N)ncc1OCc1ccc(CO)cc1 [Compound 281] | 0.472 | 0.191 | 1.630 |  |
| CCCC[C@@H](CCO)Nc1nc(N)ncc1OCCCc1ccc2c(c1)OCO2 [Compound 244] | 0.202 | 0.104 | 1.400 |  |
| CCC[C@H](C)Nc1nc(N)ncc1OCc1nccc(OC)c1OC [Compound 263] | 0.049 | 0.056 | 0.159 |  |
| CCCC[C@@H](CO)Nc1nc(N)ncc1OCc1nccc2ccccc12 [Compound 216] | 0.008 | 0.002 | 0.111 |  |
| CCCCNc1nc(N)ncc1OCc1cn2ccncc2n1 [Compound 211] | 0.208 |  | 1.040 | 0.097 |
| CCCC[C@@H](CO)Nc1nc(N)ncc1OCc1cccc(C)n1 [Compound 203] | 0.124 |  | 0.160 | 0.054 |
| CCC[C@H](C)Nc1nc(N)ncc1OCc1nccc2ccccc12 [Compound 212] | 0.007 |  | 0.148 | 0.005 |
| CCC[C@@H](CO)Nc1nc(N)ncc1OCCCc1ccc(OC)cc1 [Compound 200] | 0.253 |  | 0.181 | 0.200 |
| CCC[C@@H](CCO)Nc1nc(N)ncc1OCc1cn2ccccc2n1 [Compound 205] | 0.369 |  | 1.110 | 0.047 |
| CCCCNc1nc(N)ncc1OCc1cn2ccccc2n1 [Compound 209] | 0.074 |  | 0.667 | 0.076 |
